Data published in patent US12129312B2, “Peptide compound, application thereof and composition containing same” (priority 2017, dated 2024).
pEC50: −log10 of the molar value. Like-named read-outs stand apart in the source and are kept apart here. Numbered stars: 1 amine (or outer) side, 2 acyl side, 3 side chain; on linkers, the order of the positions; unused ones are H or OH. Square brackets hold non-standard residues; d marks the D form. Peptide text beside a SMILES is read from it. * marks the point of attachment. Benzoyl(2,3-diOH) = O=C(c1cccc(O)c1O)*; Phe(4-Me) = Cc1ccc(C[C@H](N)C(=O)O)cc1; Pro(4,4-F2) = O=C(O)[C@@H]1CC(F)(F)CN1; X5 = O=C([C@H]1c2ccccc2CCN1[*:1])[*:2]; 1Nal = N[C@@H](Cc1cccc2ccccc12)C(=O)O; 2Nal = N[C@@H](Cc1ccc2ccccc2c1)C(=O)O; dNMeY = CN[C@H](Cc1ccc(O)cc1)C(=O)O; Hydrocinnamoyl = O=C(CCc1ccccc1)*; NEtLeu = CCN[C@@H](CC(C)C)C(=O)O; NMeF = CN[C@@H](Cc1ccccc1)C(=O)O; Tic = O=C(O)[C@@H]1Cc2ccccc2CN1; NMeL = CN[C@@H](CC(C)C)C(=O)O; NHPhenethyl = c1ccc(CCN*)cc1; NMeS = CN[C@@H](CO)C(=O)O; Pip = O=C(O)[C@@H]1CCCCN1; hSer = N[C@@H](CCO)C(=O)O; Nle = CCCC[C@H](N)C(=O)O; Thz = O=C(O)[C@@H]1CSCN1; Hexanoyl = CCCCCC(=O)*; CO = O=C([*:1])[*:2]

Biological target: T1, human Chemokine like receptor 1 (Homo sapiens, UniProt Q99788)
T1 construct: host or cells: U2OS (Tango CMKLR1-bla U2OS)
T1 sequence (Q99788 1-373): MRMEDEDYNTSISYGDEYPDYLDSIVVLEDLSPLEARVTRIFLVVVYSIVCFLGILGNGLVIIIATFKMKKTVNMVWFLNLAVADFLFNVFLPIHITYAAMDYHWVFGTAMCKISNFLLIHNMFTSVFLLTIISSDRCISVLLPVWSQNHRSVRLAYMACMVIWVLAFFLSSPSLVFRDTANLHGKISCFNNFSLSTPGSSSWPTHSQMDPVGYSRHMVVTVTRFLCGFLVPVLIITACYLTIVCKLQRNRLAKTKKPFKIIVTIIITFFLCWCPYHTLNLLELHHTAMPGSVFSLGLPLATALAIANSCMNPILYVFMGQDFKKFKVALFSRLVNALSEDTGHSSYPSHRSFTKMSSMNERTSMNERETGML
Assay: Activation of Tango CMKLR1-bla U2OS cells (beta-lactamase FRET reporter)
Type: cell-based
In short: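 Agonist mode in Tango CMKLR1-bla U2OS cells, 10000 cells/well seeded overnight, then 10-point 3-fold compound dilutions from 10 mM DMSO stock applied for 4 h at 37 °C, 5% CO2. Beta-lactamase reporter read with CCF4-AM FRET substrate; peptide (D-Tyr)-Phe-Leu-Pro-(D-Ser)-Gln-Phe-(D-Ala)-Tic-Ser served as positive control.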

[1] = determination by the method of Effect Embodiment 1, read-out: EC50

SMILES	pEC50 [1]	pEC50
CCN(C(=O)[C@H](Cc1ccccc1)NC(=O)[C@@H](Cc1ccc(O)cc1)NC(=O)CCc1ccccc1)[C@@H](CC(C)C)C(=O)N1CCC[C@H]1C(=O)N[C@H](CO)C(=O)N[C@@H](CCC(N)=O)C(=O)N[C@@H](Cc1ccccc1)C(=O)N[C@H](C)C(=O)N1Cc2ccccc2C[C@H]1C(=O)N[C@@H](CO)C(=O)O [YW-185, 3-Phenylpropanoyl-(D-Tyr)-Phe-(NEt-Leu)-Pro-(D-Ser)-Gln-Phe-(D-Ala)-Tic-Ser] (Hydrocinnamoyl-[dY]F[NEtLeu]P[dS]QF[dA][Tic]S-OH)	8.23	
CC(C)C[C@H](NC(=O)[C@H](Cc1ccccc1)NC(=O)[C@@H](Cc1ccc(O)cc1)NC(=O)c1cccc(O)c1O)C(=O)N1CCC[C@H]1C(=O)N[C@H](CO)C(=O)N[C@@H](CCC(N)=O)C(=O)N[C@@H](Cc1ccccc1)C(=O)N[C@H](C)C(=O)N1Cc2ccccc2C[C@H]1C(=O)N[C@@H](CO)C(=O)O [YW-127, 2,3-dihydroxybenzoyl-(D-Tyr)-Phe-Leu-Pro-(D-Ser)-Gln-Phe-(D-Ala)-Tic-Ser-OH] ({Benzoyl(2,3-diOH)}-[dY]FLP[dS]QF[dA][Tic]S-OH)	8.00	
CC(C)C[C@@H](C(=O)N1CSC[C@H]1C(=O)N[C@H](CO)C(=O)N[C@@H](CCC(N)=O)C(=O)N[C@@H](Cc1ccccc1)C(=O)N[C@H](C)C(=O)N1Cc2ccccc2C[C@H]1C(=O)N[C@@H](CO)C(=O)O)N(C)C(=O)[C@H](Cc1ccccc1)NC(=O)[C@H](N)Cc1ccc(O)cc1 [YW-121, (D-Tyr)-Phe-(NMe-Leu)-Thz-(D-Ser)-Gln-Phe-(D-Ala)-Tic-Ser-OH] (H-[dY]F[NMeL][Thz][dS]QF[dA][Tic]S-OH)	9.15	
CCCCCC(=O)N[C@H](Cc1ccc(O)cc1)C(=O)N[C@@H](Cc1ccccc1)C(=O)N(C)[C@@H](CC(C)C)C(=O)N1CCC[C@H]1C(=O)N[C@H](CO)C(=O)N[C@@H](CCC(N)=O)C(=O)N[C@@H](Cc1ccccc1)C(=O)N[C@H](C)C(=O)N1Cc2ccccc2C[C@H]1C(=O)N[C@@H](CO)C(=O)O [YW-193, Hexanoyl-(D-Tyr)-Phe-(NMe-Leu)-Pro-(D-Ser)-Gln-Phe-(D-Ala)-Tic-Ser] (Hexanoyl-[dY]F[NMeL]P[dS]QF[dA][Tic]S-OH)	8.85	
Cc1ccc(C[C@H](NC(=O)[C@@H](C)NC(=O)[C@H](Cc2ccccc2)NC(=O)[C@H](CCC(N)=O)NC(=O)[C@@H](CO)NC(=O)[C@@H]2CCCN2C(=O)[C@H](CC(C)C)N(C)C(=O)[C@H](Cc2ccccc2)NC(=O)[C@H](N)Cc2ccc(O)cc2)C(=O)N[C@@H](CO)C(=O)O)cc1 [YW-205, (D-Tyr)-Phe-(NMe-Leu)-Pro-(D-Ser)-Gln-Phe-(D-Ala)-Phe(4-Me)-Ser] (H-[dY]F[NMeL]P[dS]QF[dA][Phe(4-Me)]S-OH)	8.21	
CN[C@H](Cc1ccc(O)cc1)C(=O)N[C@@H](Cc1ccccc1)C(=O)N(C)[C@@H](CC(C)C)C(=O)N1CCC[C@H]1C(=O)N[C@H](CO)C(=O)N[C@@H](CCC(N)=O)C(=O)N[C@@H](Cc1cccc2ccccc12)C(=O)N[C@H](C)C(=O)N1Cc2ccccc2C[C@H]1C(=O)N[C@@H](CO)C(=O)O [YW-168, (D-NMe-Tyr)-Phe-(NMe-Leu)-Pro-(D-Ser)-Gln-1Nal-(D-Ala)-Tic-Ser-OH] (H-[dNMeY]F[NMeL]P[dS]Q[1Nal][dA][Tic]S-OH)	8.92	
CCCC[C@H](NC(=O)[C@H](Cc1ccccc1)NC(=O)[C@H](N)Cc1ccc(O)cc1)C(=O)N1CCC[C@H]1C(=O)N[C@H](CO)C(=O)N[C@@H](CCC(N)=O)C(=O)N[C@@H](Cc1ccccc1)C(=O)N[C@H](C)C(=O)N1Cc2ccccc2C[C@H]1C(=O)N[C@@H](CO)C(=O)O [YW-197, (D-Tyr)-Phe-Nle-Pro-(D-Ser)-Gln-Phe-(D-Ala)-Tic-Ser] (H-[dY]F[Nle]P[dS]QF[dA][Tic]S-OH)		8.00
CC(C)C[C@@H](C(=O)N1CCC[C@H]1C(=O)N[C@H](CO)C(=O)N[C@@H](CCC(N)=O)C(=O)N[C@@H](Cc1ccccc1)C(=O)N[C@H](C)C(=O)N1Cc2ccccc2C[C@H]1C(=O)N[C@@H](CCO)C(=O)O)N(C)C(=O)[C@H](Cc1ccccc1)NC(=O)[C@H](N)Cc1ccc(O)cc1 [YW-171, (D-Tyr)-Phe-(NMe-Leu)-Pro-(D-Ser)-Gln-Phe-(D-Ala)-Tic-HoSer-OH] (H-[dY]F[NMeL]P[dS]QF[dA][Tic][hSer]-OH)	7.54	
CC(C)C[C@@H](C(=O)N1CCC[C@H]1C(=O)N[C@H](CO)C(=O)N[C@@H](CCC(N)=O)C(=O)N[C@@H](Cc1ccccc1)C(=O)N[C@H](C)C(=O)N1Cc2ccccc2C[C@H]1C(=O)N[C@@H](CO)C(=O)O)N(C)C(=O)[C@H](Cc1ccccc1)NC(=O)[C@H](N)Cc1ccc(O)cc1 [YW-98, (D-Tyr)-Phe-(NMe-Leu)-Pro-(D-Ser)-Gln-Phe-(D-Ala)-Tic-Ser-OH] (H-[dY]F[NMeL]P[dS]QF[dA][Tic]S-OH)	8.52	
CC(C)C[C@@H](C(=O)N1CCC[C@H]1C(=O)N[C@H](CO)C(=O)N[C@@H](CCC(N)=O)C(=O)N[C@@H](Cc1ccccc1)C(=O)N[C@H](C)C(=O)N1Cc2ccccc2C[C@H]1C(=O)N[C@@H](CO)C(N)=O)N(C)C(=O)[C@H](Cc1ccccc1)NC(=O)[C@@H](Cc1ccc(O)cc1)NC(=O)CCc1ccccc1 [YW-161, 3-phenylpropanoyl-(D-Tyr)-Phe-(NMe-Leu)-Pro-(D-Ser)-Gln-Phe-(D-Ala)-Tic-Ser-NH2] (Hydrocinnamoyl-[dY]F[NMeL]P[dS]QF[dA][Tic]S-NH2)	8.52	
CC(C)C[C@H](NC(=O)[C@H](Cc1ccccc1)NC(=O)[C@H](N)Cc1ccc(O)cc1)C(=O)N1CCCC[C@H]1C(=O)N[C@H](CO)C(=O)N[C@@H](CCC(N)=O)C(=O)N[C@@H](Cc1ccccc1)C(=O)N[C@H](C)C(=O)N1Cc2ccccc2C[C@H]1C(=O)N[C@@H](CO)C(=O)O [YW-96, (D-Tyr)-Phe-Leu-(S-Pip)-(D-Ser)-Gln-Phe-(D-Ala)-Tic-Ser] (H-[dY]FL[Pip][dS]QF[dA][Tic]S-OH; N-terminus assumed)		7.41
CC(C)C[C@@H](C(=O)N1CCC[C@H]1C(=O)N[C@H](CO)C(=O)N[C@@H](CCC(N)=O)C(=O)N[C@@H](Cc1ccccc1)C(=O)N[C@H](C)C(=O)N1Cc2ccccc2C[C@H]1C(=O)N[C@@H](CO)C(=O)O)N(C)C(=O)[C@H](Cc1cccc2ccccc12)NC(=O)[C@H](N)Cc1ccc(O)cc1 [YW-199, (D-Tyr)-1Nal-(NMe-Leu)-Pro-(D-Ser)-Gln-Phe-(D-Ala)-Tic-Ser] (H-[dY][1Nal][NMeL]P[dS]QF[dA][Tic]S-OH)		8.54
CN[C@H](Cc1ccc(O)cc1)C(=O)N[C@@H](Cc1ccccc1)C(=O)N(C)[C@@H](CC(C)C)C(=O)N1CCC[C@H]1C(=O)N[C@H](CO)C(=O)N[C@@H](CCC(N)=O)C(=O)N[C@@H](Cc1ccccc1)C(=O)N[C@H](C)C(=O)N1Cc2ccccc2C[C@H]1C(=O)N[C@@H](CO)C(=O)O [YW-163, (D-NMe-Tyr)-Phe-(NMe-Leu)-Pro-(D-Ser)-Gln-Phe-(D-Ala)-Tic-Ser-OH] (H-[dNMeY]F[NMeL]P[dS]QF[dA][Tic]S-OH)	8.66	
CC(C)C[C@H](NC(=O)[C@H](Cc1ccccc1)NC(=O)[C@@H](Cc1ccc(O)cc1)NC(=O)NCCc1ccccc1)C(=O)N1CCC[C@H]1C(=O)N[C@H](CO)C(=O)N[C@@H](CCC(N)=O)C(=O)N[C@@H](Cc1ccccc1)C(=O)N[C@H](C)C(=O)N1Cc2ccccc2C[C@H]1C(=O)N[C@@H](CO)C(=O)O [YW-72, Phenethylcarbamoyl-(D-Tyr)-Phe-Leu-Pro-(D-Ser)-Gln-Phe-(D-Ala)-Tic-Ser-OH] ({NHPhenethyl-CO}-[dY]FLP[dS]QF[dA][Tic]S-OH)	7.35	
CC(C)C[C@H](NC(=O)[C@H](Cc1ccccc1)NC(=O)[C@H](N)Cc1ccc(O)cc1)C(=O)N1CCC[C@H]1C(=O)N[C@H](CO)C(=O)N[C@@H](CCC(N)=O)C(=O)N[C@@H](Cc1ccccc1)C(=O)N[C@H](C)C(=O)N1CCCC[C@H]1C(=O)N[C@@H](CO)C(=O)O [YW-90, (D-Tyr)-Phe-Leu-Pro-(D-Ser)-Gln-Phe-(D-Ala)-HoPro-Ser-OH] (H-[dY]FLP[dS]QF[dA][Pip]S-OH)	< 4.30	
CC(C)C[C@@H](C(=O)N1CC(F)(F)C[C@H]1C(=O)N[C@H](CO)C(=O)N[C@@H](CCC(N)=O)C(=O)N[C@@H](Cc1ccc2ccccc2c1)C(=O)N[C@H](C)C(=O)N1Cc2ccccc2C[C@H]1C(=O)N(C)[C@@H](CO)C(=O)O)N(C)C(=O)[C@H](Cc1ccccc1)NC(=O)[C@H](N)Cc1ccc(O)cc1 [YW-224, (D-Tyr)-Phe-(NMe-Leu)-Pro(diF)-(D-Ser)-Gln-2Nal-(D-Ala)-Tic-NMeSer] (H-[dY]F[NMeL][Pro(4,4-F2)][dS]Q[2Nal][dA][Tic][NMeS]-OH)		8.89
CN[C@H](Cc1ccc(O)cc1)C(=O)N[C@@H](Cc1ccccc1)C(=O)N[C@@H](CC(C)C)C(=O)N1CCC[C@H]1C(=O)N[C@H](CO)C(=O)N[C@@H](CCC(N)=O)C(=O)N[C@@H](Cc1ccccc1)C(=O)N[C@H](C)C(=O)N1CCc2ccccc2[C@@H]1C(=O)N[C@@H](CO)C(=O)O [YW-154, (D-NMe-Tyr)-Phe-Leu-Pro-(D-Ser)-Gln-Phe-(D-Ala)-D-Ti1c-Ser-OH] (H-[dNMeY]FLP[dS]QF[dA][X5]S-OH)	7.47	
C[C@@H](NC(=O)[C@H](Cc1ccccc1)NC(=O)[C@H](CCC(N)=O)NC(=O)[C@@H](CO)NC(=O)[C@@H]1CCCN1C(=O)[C@H](Cc1ccccc1)N(C)C(=O)[C@H](Cc1ccccc1)NC(=O)[C@H](N)Cc1ccc(O)cc1)C(=O)N1Cc2ccccc2C[C@H]1C(=O)N[C@@H](CO)C(=O)O [YW-100, (D-Tyr)-Phe-(NMe-Phe)-Pro-(D-Ser)-Gln-Phe-(D-Ala)-Tic-Ser-OH] (H-[dY]F[NMeF]P[dS]QF[dA][Tic]S-OH)	7.38	
